The IC50 is the concentration needed to halve the response being measured.

Results on four compounds are retold here after patent publication US9896482B2, “Beta hairpin peptides having antiviral properties against Dengue virus” (CENTRO DE INGENIERÍA GENÉTICA Y BIOTECNOLOGÍA, priority 2014, dated 2018).

Data set [1] has as its system DENV 4 (NIBSC code TVP360). Kind of data set: Plaque reduction assay in Vero cells, DENV4. The class given is cell-based, Dengue virus. Conditions: m.o.i. 0.001, read-out: Antiviral activity IC50 vs DENV4. As for the experimental part:
(§1) The cells were grown in 24 well plates until the monolayer reached approximately 90% confluence, after which they were washed twice with MEM medium without Fetal Bovine Serum (FBS). Then, peptide dilutions were added and the cell-peptide mixtures were incubated typically for 1 hour at 37° C., followed by the addition of a DENV serotype 2 preparation (NIBSC code S16803) at a multiplicity of infection (m.o.i.) of 0.001. The cells were then incubated for 1 hour at 37° C., and once the period of incubation with the viral inoculum concluded, were washed again to remove unbound virions and incubated for 5 days at 37° C. in high density medium (MEM supplemented with non-essential amino acids, 1% FBS, 1% carboxymethylcellulose) in order to let viral plaques form. Afterwards, the cells were stained with 0.1% Naphtol Blue Black in 0.15 M sodium acetate. Two replicates per experimental point were used in each assay, and three independent determinations were performed for each sample.
(§2) Next, it was decided to compare the antiviral activity of peptides PHB4 and HDIII3CL against all four DENV serotypes, with the objective of comparing their respective IC50 values. […]
A general note: Plaque reduction counts the foci of infection that form in a cell layer.

Data set [2] deals with DENV1 (NIBSC code West Pac 74). Put plainly: Plaque reduction assay in Vero cells, DENV1. The format is cell-based, Dengue virus. Conditions: m.o.i. 0.001, read-out: Antiviral activity IC50 vs DENV1. As to the method: as §1, §2
The test system of data set [3] is DENV serotype 2 (NIBSC code S16803). Put plainly: Plaque reduction assay in Vero cells, DENV2. The class given is cell-based, Dengue virus. As to the method: as §1
Next, it was decided to compare the antiviral activity of peptides PHB4 and HDIII3CL against all four DENV serotypes, with the objective of comparing their respective IC50 values. This comparison was performed with plaque reduction assays on Vero cells, adding the viral inoculum for each serotype (DENV1, NIBSC code West Pac 74, DENV2, NIBSC, code S16803; DENV3, NIBSC, code CH53489; DENV 4, NIBSC code TVP360) at a m.o.i. of 0.001.

The subject of data set [4] is DENV3 (NIBSC code CH53489). Kind of data set: Plaque reduction assay in Vero cells, DENV3. Conditions: m.o.i. 0.001, read-out: Antiviral activity IC50 vs DENV3. The format is cell-based, Dengue virus. As to the method:
as §1, §2

Data set [5] can be described thus: Toxicity in Vero cells (MTT assay and manual cell counting). The class given is cell-based. Conditions: ‡ non toxic at 1000 μM, read-out: Ctox50. As to the method:
(§3) The toxicity of the beta hairpin peptides was assessed with the MTT (3-(4,5-dimethylthiazol-2-yl)-2,5-diphenyltetrazolium bromide, Invitrogen, USA) assay (Mosmann, T. (1983). J. Immunol. Methods 65, 55-63.), and by manual cell counting using a Neubauer chamber. Ninety-six well plates (Costar, USA) were seeded with 200 μL/well of a suspension containing Vero cells at 1×10^5 cells/mL and incubated until the monolayers reached approximately 90% confluence, typically for 18-24 h. After washing the cells twice with DMEM (Dulbecco's Modified Eagle Medium) medium, 50 μL/well were added of the peptide or additive dilutions to be evaluated (Triton ^X-100™ dissolved in PBS was used as positive toxicity control) and the plates were incubated at 37° C. under a 5% CO2 atmosphere for 2 or 24 h. Two different procedures were then employed to measure toxicity: • a) A 2 mg/mL solution of MTT in PBS was added (50 μL/well) and the plates were incubated for further 4 h at 37° C., 5% CO2. The medium was then removed, and 100 μL/well of DMSO were then added to solubilize formazan precipitates. Finally, the optical density (OD) of the supernatants at a wavelength of 540 nm was measured using a plate reader (Sensident Scan™, Merck, Germany). • b) The plates were washed with 200 μL/well of DMEM medium and then a trypsin solution (Sigma, USA) was added at 50 μL/well. After inactivating the trypsin by adding 150 μL/well of DMEM supplemented with 10% FBS, the cells were counted using the Trypan Blue (Gibco, USA) vital stain. The data were processed using the statistical software package Prism v5.3 (GraphPad, USA), using non-linear regression to fit them to a log10 (concentration) vs response curve.
Background: Tetrazolium assays rely on reduction of a dye to a coloured formazan, in cell work by metabolically active cells.

The next data set relates to Vero cells. The description is as above. The class given is cell-based. Conditions: ‡ non toxic at 1000 μM. As for the experimental part:
as §3

The target of data set [6] is T1, sLRP1-CIV (Homo sapiens, UniProt Q07954).
T1 construct: purchased R&D Systems, USA
Put plainly: Biacore (SPR) binding to immobilized sLRP1-CIV. Conditions: double site model, maximum RU vs. concentration. As to the method: The interaction of the beta hairpin peptides with soluble fragments of the LRP1 receptor was studied by Surface Plasmon Resonance (SPR), using a Biacore X unit. In this technique, one of the interaction partners to be studied is immobilized on the surface of a chip, and the other interaction partner is dissolved in a solution that runs through the measurement cell on top of the interaction surface, under conditions of controlled flow. The association and dissociation of interacting partners is measured in resonance units (RU) and plotted, as a function of time, on charts known as ‘sensorgrams’. SPR, therefore, enables the experimenter to obtain detailed information about the interaction without having to label either interaction partner.
In this example, one channel of a CM5 chip (GE Healthcare, USA) was used to immobilize protein sLRP1-CIV on its surface at high density (see Table 6) and recombinant Human Serum Albumin (rHSA, Sigma-Aldrich, USA) was immobilized on the other channel.
Although it was decided to immobilize sLRP1-CIV at high density because these conditions make easier the detection of any potential interactions with compounds whose molecular weight is lower than that of average proteins (such as the peptides this experiment is intended to study), it must be stressed that in high-density surfaces, mass transfer limitations and the possibility of multivalent binding make difficult the accurate determination of kinetic constants. Therefore, and in order to characterize in greater detail the sLRP1-CIV binding surface, different RAP dilutions (0.6-20 μM) were loaded, and RU were registered under conditions of interaction equilibria (250 sec, see FIG. 13B). […] The data also indicate that immobilized sLRP1-CIV faithfully reproduces the previously reported characteristics of the LRP1-RAP interaction.
The binding of beta hairpin peptides to sLRP1-CIV was studied by loading 20 μM dilutions in running buffer of the different peptide variants onto the sLRP1-CIV chip characterized above. The high strength of the resulting signals is consistent with the binding of aggregated, rather than monomeric forms of the peptides. Therefore, the observed variations between different peptides may reflect either differences in the affinity of unitary peptide interactions or differences in aggregation numbers and/or geometries that lead to variations in the number of peptide units able to simultaneously engage immobilized sLRP1-CIV molecules in a multivalent manner. […] The difference between peptides HDIII3CL2 and HDIII3CL is that the former has an additional C-terminal lysine and has, therefore, a stronger cationic character, which may facilitate additional electrostatic interactions with the negatively charged LRP1 receptor.
(In general: In SPR one partner is held on a chip, and binding of the other changes the refractive index at the surface.)

Data set [7] has as its target T1, sLRP1-CIV. Conditions: other studies; read-out: Affinity of multi-point interaction with clusters II and IV of LRP1; cited from earlier work.
Where [8] appears, read: DENV2, plaque reduction, NA = no detectable activity at concentrations lower than or equal to 100 μM, read-out: IC50, antiviral activity in Vero cells (50% inhibitory activity).

Like-named read-outs stand apart in the source and are kept apart here. Where a SMILES comes first, the peptide text is derived from it. Bridges are numbered along the chain shown (N, C = ends). [ ]: non-standard residue; d: D form. A value given as a limit tells only on which side of the number the result lay.

As for `CC[C@H](C)[C@@H]1NC(=O)CNC(=O)[C@H]([C@@H](C)CC)NC(=O)[C@H](C(C)C)NC(=O)[C@H]([C@@H](C)CC)NC(=O)[C@H](CC(N)=O)NC(=O)[C@H](CO)NC(=O)[C@@H](N)CSSC[C@@H](C(=O)N[C@@H](CCCCN)C(=O)N[C@@H](CCCCN)C(N)=O)NC(=O)[C@H](Cc2c[nH]c3ccccc23)NC(=O)[C@H](CC(N)=O)NC(=O)[C@H]([C@@H](C)CC)NC(=O)[C@H](CCCCN)NC(=O)[C@H](CC(C)C)NC(=O)[C@H](C)NC(=O)[C@H](CCCCN)NC(=O)[C@H](CC(=O)O)NC(=O)CNC1=O` [HDIII3CL, reference compound] (H-CSNIVIGIGDKALKINWCKK-NH2; disulfide 1-18), the IC50 amounted to 50 µM in data set [1]; 15 µM in data set [2]; 20 µM in data set [3] (setting [8]); 20 µM in data set [3] (Vero cells, m.o.i. 0.001, read-out: Antiviral activity IC50 vs DENV2); 20 µM in data set [4]. Also, in data set [5], the CC50 was found to be 1000 µM.

Turning to `CC(C)[C@@H]1NC(=O)[C@H](CCCCN)NC(=O)[C@H](CCCCN)NC(=O)[C@H](CC(=O)O)NC(=O)[C@H]2CCCN2C(=O)[C@H](CCC(=O)O)NC(=O)[C@H]([C@@H](C)O)NC(=O)[C@H](Cc2c[nH]c3ccccc23)NC(=O)[C@H](CC(N)=O)NC(=O)[C@H](C(C)C)NC(=O)[C@@H](N)CSSC[C@@H](C(=O)N[C@@H](CCCCN)C(=O)N[C@@H](CCCCN)C(=O)N[C@@H](CCCCN)C(N)=O)NC(=O)[C@H](Cc2c[nH]c3ccccc23)NC(=O)[C@H](CC(N)=O)NC1=O` [PHB1] (H-CVNWTE[dP]DKKVNWCKKK-NH2; disulfide 1-14), in data set [3] (setting [8]), the 50% inhibitory concentration (IC50) came to 75 µM. Besides, the Ctox50 with Vero cells is >>1000^‡ μM.

Consider `CC[C@H](C)[C@@H]1NC(=O)[C@H](Cc2ccccc2)NC(=O)[C@H](Cc2c[nH]c3ccccc23)NC(=O)[C@H](CC(N)=O)NC(=O)[C@H](C(C)C)NC(=O)[C@H](CCCCN)NC(=O)[C@H](CCCCN)NC(=O)[C@H](CC(=O)O)NC(=O)[C@H]2CCCN2C(=O)[C@H](CCC(=O)O)NC(=O)[C@H]([C@@H](C)O)NC(=O)[C@H](Cc2c[nH]c3ccccc23)NC(=O)[C@H](CC(N)=O)NC(=O)[C@H](C(C)C)NC(=O)[C@H](CCC(=O)O)NC(=O)[C@H]([C@@H](C)CC)NC(=O)[C@@H](N)CSSC[C@@H](C(=O)N[C@@H](CCCCN)C(=O)N[C@@H](CCCCN)C(=O)N[C@@H](CCCCN)C(N)=O)NC1=O` [PHB3] (H-CIEVNWTE[dP]DKKVNWFICKKK-NH2; disulfide 1-18), for which the half-maximal inhibitory concentration (IC50) in data set [3] (setting [8]) is 17 µM. For the same compound, the Ctox50 with Vero cells is >>1000^‡ μM.

“RAP: Receptor-Associated Protein, a known LRP1 ligand”: the Kd in the data set with sLRP1-CIV [6] (read-out: Kd of high-affinity interaction) is 0.0042 µM; with sLRP1-CIV [6] (read-out: Kd of low-affinity interaction) it was 1.1 µM; with sLRP1-CIV [7], 0.006 to 0.018 µM.
